Assay results reported in ChEMBL document CHEMBL1667788, “Novel dammarane-type sapogenins from Panax ginseng berry and their biological activities” (Bioorg Med Chem Lett, 2011).

Columns and labels:
Assay type in all cases: functional, cell-based
HL-60 = assay: Cytotoxicity against human HL60 cells after 72 hrs by MTT assay; details: HL-60, 72 h
COLO 205 = assay: Cytotoxicity against human COLO205 cells after 72 hrs by MTT assay; details: COLO 205, 72 h
HepG2 = assay: Cytotoxicity against human HepG2 cells after 72 hrs by MTT assay; details: HepG2, 72 h
MCF7 = assay: Cytotoxicity against human MCF7 cells after 72 hrs by MTT assay; details: MCF7, 72 h
A549 = assay: Cytotoxicity against human A549 cells after 72 hrs by MTT assay; details: A549, 72 h
DU-145 = assay: Cytotoxicity against human DU145 cells after 72 hrs by MTT assay; details: DU-145, 72 h

SMILES	IC50 (HL-60) [µM]	IC50 (COLO 205) [µM]	IC50 (HepG2) [µM]	IC50 (MCF7) [µM]	IC50 (A549) [µM]	IC50 (DU-145) [µM]
CC(C)[C@]12CC[C@](C)(O1)[C@H]1CC[C@]3(C)[C@@H]1[C@@H](C[C@@H]1[C@@]4(C)CC[C@H](O)C(C)(C)[C@@H]4CC[C@]13C)O2	42.4	70.7	64.1	49		
CC(C)(O)CCC[C@@](C)(O)[C@H]1CC[C@]2(C)[C@@H]1[C@H](O)C[C@@H]1[C@@]3(C)CC[C@H](O)C(C)(C)[C@@H]3CC[C@]12C	8.03	18.9	45.8	34.2	29.9	
COC(C)(C)CCC[C@@](C)(O)[C@H]1CC[C@]2(C)[C@@H]1[C@H](O)C[C@@H]1[C@@]3(C)CC[C@H](O)C(C)(C)[C@@H]3CC[C@]12C	8.48	14.2	8.32	8.34	35.6	11.8
CC(C)=CCCC(C)(O)[C@H]1CC[C@]2(C)[C@@H]1[C@H](O)C[C@@H]1[C@@]3(C)CC[C@H](O)C(C)(C)[C@@H]3CC[C@]12C (single isomer, unassigned)	27.1	49.2	39.4	6.62	99.9	60.4
